Results: patent publication US20140044709A1, “TREATMENT OF HER2-POSITIVE CANCER WITH PACLITAXEL AND TRASTUZUMAB-MCC-DM1” (priority 2010, published 2014)
Where two headings read alike, the source gives them in different places.

Experiments:
[1] = test system: patients with MBC; conditions: single agent, cited from earlier work
[2] = Pertuzumab PK studies (Phase Ia and II); assay type: in vivo, human
Description: A two-compartment model adequately described the concentration-time data with a terminal half-life of approximately 17 days for a typical patient.
Population PK modeling of data from Phase Ia and II studies supports the continued use of fixed non-weight based dosing in female patients.

[3] = test system: patients with cancer; experiment: Pooled Phase II trials of single-agent pertuzumab, safety; assay type: in vivo, human
[4] = test system: patients with cancer; experiment: Completed Phase Ib combination studies of pertuzumab, LVEF; assay type: in vivo, human; conditions: 2/35 patients
Description: Grade 3-4 adverse events have been less frequently reported, with the more frequent events being Grade 3 diarrhea (5%), Grade 3 vomiting (2%), and Grade 3 nausea (<1%). Asymptomatic decreases in LVEF have been reported as adverse events in 14% of patients and were mainly (−70%) Grade 1 events.

[5] = test system: patients with cancer; experiment: Pertuzumab across all studies, symptomatic cardiac failure; assay type: in vivo, human; conditions: 4 of 842 patients across all studies
Description: Two of these patients had MBC and had received prior anthracyclines and two patients had ovarian cancer patients, one of whom had cardiac risk factors (hypertension/hyperlipidemia).

[6] = test system: patients with HER2-positive MBC
[7] = test system: patients with HER2-positive MBC; remark: listed apart in the source
Description: Patients with confirmed HER2-positive MBC whose disease had progressed on multiple lines of therapy, including HER2-directed therapy, were eligible.
Preliminary data in 112 evaluable patients are also available from the Phase II study.

[8] = pooled Phase II single agent (n=353), generally Grade 1-2
[9] = subgroup with at least 6 months of follow-up or discontinued (n=76)

## CC(=O)O[C@H]1C(=O)[C@@]2(C)[C@H]([C@H](OC(=O)c3ccccc3)[C@]3(O)C[C@H](OC(=O)[C@H](O)[C@@H](NC(=O)c4ccccc4)c4ccccc4)C(C)=C1C3(C)C)[C@]1(OC(C)=O)CO[C@@H]1C[C@@H]2O (relative stereo) [paclitaxel, β-(benzoylamino)-α-hydroxy-,6,12b-bis (acetyloxy)-12-(benzoyloxy)-2a,3,4,4a,5,6,9,10,11,12,12a,12b-dodecahydro-4,11-dihydroxy-4a,8,13,13-tetramethyl-5-oxo-7,11-methano-1H-cyclodeca(3,4)benz(1,2-b) oxet-9-ylester,(2aR-(2a-α,4-β,4a-β,6-β,9-α (α-R*,β-S*),11-α,12-α,12a-α,2b-α))-benzenepropanoic acid]
[1]; first-line treatment of MBC
  response rates: 29-63%
[1]; second-line treatment of MBC
  response rates: 21-56%

## pertuzumab: humanized monoclonal antibody that binds to extracellular domain II of HER2 and blocks its ability to dimerize with other HER receptors
[2]; loading dose 840 mg followed by 420 mg every 3 weeks
  attaining steady-state trough and peak concentrations: by the second cycle
[2]; two-compartment model, typical patient
  terminal half-life: approximately 17 days
[3]; % of patients
  asymptomatic decreases in LVEF reported as adverse events: 14%
[3]; completed Phase II single-agent studies, 21/302 patients
  LVEF declines of ≧10% to <50%: 7%
[3]; pooled Phase II single agent
  Grade 3 diarrhea: 5%
  Grade 3 nausea: < 1%
  Grade 3 vomiting: 2%
[3]; [8]
  abdominal pain: 24%
  diarrhea: 58%
  fatigue: 32%
  nausea: 31%
  rash: 17%
  vomiting: 22%
[3]; single agent, five Phase II studies
  tolerability: well tolerated
[4]
  LVEF declines of ≧10% to <50%: 6%
[5]
  symptomatic cardiac failure events: 0.5%

## T-DM1
[6]; 1.2 mg/kg weekly (n=3)
  responses: three
[6]; 1.6 mg/kg weekly (n=3)
  responses: two
[6]; 2.0 mg/kg weekly (n=3)
  responses: two
[6]; every 3-week schedule, 5/11
  ORR in patients with measurable disease and confirmed HER2 status by central review: 46%
[6]; every 3-week schedule, 13/24
  6-month clinical benefit rate (CR+PR+SD>6 months): 54%
[6]; every-3-week schedule, 24 patients
  objective response rate (ORR): 21%
[6]; every-3-week schedule, of six responses
  responses confirmed according to RECIST: five
[6]; weekly schedule, 7/15
  ORR in patients with measurable disease and confirmed HER2 status by central review: 47%
[6]; weekly schedule, 18/28
  6-month clinical benefit rate (CR+PR+SD>6 months): 64%
[6]; weekly schedule, 28 patients
  objective response rate (ORR): 54%
[6]; weekly schedule, of 15 responses
  responses confirmed according to RECIST: 13
[7]; 107 efficacy-evaluable patients, 29 responses
  objective responses confirmed by follow-up imaging: 27.1%
[7]; 107 efficacy-evaluable patients, 42 responses
  objective responses (CRs and PRs): 39.3%
[7]; [9]
  response rate: 43.4%
  response rate confirmed by follow-up imaging: 38.2%
